{"source": "patent US20220152228A1", "about": "“COMPOSITIONS AND METHODS FOR RADIOTHERAPY USING CHELATED RADIOTHERAPEUTIC AGENTS AND NON-TARGET TISSUE BLOCKADE” (Washington University, priority 2019, published 2022)", "key": {"[1]": {"system": "^223Ra transport through caco-2 monolayers", "assay": "Ion-channel ligand library screen for 223Ra flux through caco-2 monolayers", "assay_type": "cell-based", "details": "20 μM, BL to AP, normalized to treatment-free flux", "protocol": "Caco-2BBe1 (brush border expressing clone of parent Caco-2 line) monolayers, modelling colon tissue, were used. Caco-2 monolayers were utilized for ion-channel ligand library screening (52 compounds) testing epithelial ion-transport activation or blocking of radioactive transfer (see e.g., FIG. 15A). Caco-2 cells were seeded 15 K cells/well in 96 trans-well filter plate and assayed 10 days post-seeding. […] The screening material was sampled at 20 μM per BL well (n=3/molecules).\nThe monolayers integrity was monitored using a lucifer yellow permeability assay. The fluorescent tracer was loaded in the AP compartment, and fluorescence permeability was read in the BL vial. % Lucifer Yellow Passage (LYp %) was calculated as the percentile ratio of relative Fluorescence Units-535 nm (FU) of the assayed BL over FU of complete transfer in BL well.\nRadioactive reading was accomplished sampling AP compartments on Luma plates and reading the dried luminescence using Topcount scintillation counter. […] Averaged drug-assayed measurements (n=3) were normalized to treatment-free flux."}, "[2]": {"system": "metastatic castration-resistant prostate cancer", "details": "mCRPC patients, vs. 11.9 months in control patients; cited from earlier work"}, "colon and duodenum": {"system": "colon and duodenum", "details": "mice, uptake in the intestine", "experimental": "Animals were fasted and supplemented with Golytely (24 g/350 mL) 2 h prior injections and sacrificed 24 h post administration. Sections (1 cm) of each gastrointestinal region from the duodenum, jejunum, ileum to the colon were rapidly harvested. GI specimen were set onto previously partially solidified OCT gel block, then fully coated with OCT and flash frozen. Gastrointestinal transversal sectioning was conducted utilizing Leica microtome, 10 μm sections. Fresh frozen sections were collected on tape and stored at −20° C.\nGastrointestinal tissue sections were fixed immerging tapes in 10% paraformaldehyde (PFA) for 15 min followed by a washing with PBS 1×. Following fixation, tissues were mounted directly with DAPI and/or TRITC-Phalloidin mounting media under cover slip ready for imaging.\nA second fixations was proceeded using 10% PFA and washed with deionized water. Tissues were then reacted using buffer reaction mixtures from Click-iT Plus TUNEL assay. Positive control were conducted, treated similarly with an additional DNAase treatment. Final counterstaining was conducted using Hoechst33342 (1:5000) before mounting taped tissue specimen under cover slip with 30% aqueous glycerol.\nFor γH2AX staining, tissues were fixed and submitted to blocking serum reagent, 1 h at room temperature. […]"}, "[3]": {"details": "after administration to mice", "experimental": "The whole gastrointestinal tracts from stomach to rectum were rapidly harvested and placed directly on plastic wraps set over autoradiographic phosphor screens for 90 min exposure in the dark. The autoradiographic prints were read on Cyclone Phosphor Imager (Packard), 300 DPI confocal laser stimulation; 16-bit ADC; utilizing FIJI processing with median filter. For FIJI readings of the autoradiographic files, data were converted to 32-bit format utilizing “square and scale n16” plug in. Radioactive signal intensity was translated into dynamic light units (see e.g., FIG. 12A). Signal intensity was plotted over the GI tract length from the stomach (start=0) to the cecum (˜200 mm) comparing various time points (see e.g., FIG. 12B). Results were comprised as well into profiles curves per organ region of interests including: stomach, cecum or the whole intestinal tract (see e.g., FIG. 12C)."}, "[4]": {"system": "human duodenal enteroid monolayers", "protocol": "An in vitro patient-derived organoid model of functional gut epithelium was developed by plating human duodenal enteroid monolayers on a permeable trans-well scaffold.\nIntestinal cellular models—human duodenal enteroids and caco-2 monolayers—were grown on a trans-well polymeric filter plate divided in a lower and an upper incubation compartments modeling basolateral and apical side of the epithelium, respectively.\nHuman duodenal enteroids (see e.g., FIG. 13A) were reconstituted and grown from healthy patient-derived cellular crypts tissue samples. Both differentiated (DF) and undifferentiated (UDF) conditions were tested. DF monolayers were induced by removal of Wnt3A and R-spondin factors from the incubation media, as described previously.\nDF or UDF duodenal enteroids were set and grown on 24-transwell plates for 2 weeks until cell confluency was reached, leading to closed monolayer membranes. […] Temperature-dependent transport 37° C. versus 4° C. was tested on UDF enteroids (see e.g., FIG. 13B). DF versus UDF enteroids phenotypes transfer were compared, selecting monolayers with similar range of TEER (1200<TEER<1800 D/m) (see e.g., FIG. 13C)."}, "human serum proteins": {"system": "human serum proteins", "details": "for activity in early protein fractions (5-15 mL), affinity with proteins: 2 h of incubation in serum proteins", "experimental": "Next, the stability of the complex to serum proteins was determined in vitro, simulating the complex biological environment encountered in vivo.\nAlternatively, size exclusion chromatography (SEC) was utilized to identify each species in solution. […] Chelated activity % was measured integrating gamma counts of macropa peak (20 mL) over the sum counts of all collected fractions (0-47 mL) (see e.g., FIG. 3E)."}, "[5]": {"details": "aqueous solution, physiological pH, Ba2+ complex; cited from earlier work"}, "[6]": {"assay": "223Ra organ distribution in mice pre-treated with ion-channel modulator", "assay_type": "in vivo, C57/Bl6 mice", "protocol": "Healthy male C57/Bl6 mice were randomized received a combination treatment with intraperitoneal injection of Amiloride (inhibitor, red) or NS-1619 (activator, green) or saline (control, grey) followed by a clinical dose of ^223RaCl2 1 h post-drug administration. Radioactive organ distribution was then measured at 15 min, 1 h and 4 h post ^223Ra treatment. […] Comparing bone uptake, as early as 15 min, osseous absorption is was half for the NS-1619-treated group as compared to the amiloride or the control group.\nMale C57Bl/6 aged 10 weeks (n=6 per treated group) were administered intraperitoneally Amiloride (12.5 mg/kg-150 uL 2% v/v DMSO) or NS-1619 (1 mg/kg-150 uL 2% v/v DMSO) or saline 1 h prior ^223RaCl2 i.v. administration (3.7 KBq/100 uL buffer). Animals were kept awake between each injection. 15 min; 1 h and 4 h post ^223Ra administration: blood; spleen; kidney; stomach; duodenum; jejunum; ileum; cecum; colon; muscle; fat and bone tibia were harvested, weighed and gamma counted. Gamma counting was conducting utilizing a Perkin Elmer Wizard2 counter with readings of energies set 150-350 KeV, with 10 min reading for each sample. Standard corresponding to 10% of injected activity were measured as well; allowing for the calculation of % Injected activity (% IA) normalized to tissue weight (% IA/g)."}, "[7]": {"protocol": "The animals were maintained for 20 days with food and water and submitted to blood chemistry analysis (Abaxis Vscan 2) at day 1; 7 and 19 d post-treatment. Weight was monitored for each cohort over 20 days. At the end of the study (day 20 post-treatment), animals were sacrificed and whole limbs and kidneys were harvested for gamma counting and histopathological assessments, respectively.\nKidneys were collected 20 days post-treatment and the tissues were fixed in formalin for 72 h then transferred to saline. Tissues were processed by dehydration, paraffin embedding, and sectioning at 4 μm. Adjacent sections were stained with H&E, PAS and Masson's trichrome.", "remark": "listed apart in the source"}, "[8]": {"details": "human serum proteins, 37° C., 12 days"}}, "note": "Where two headings read alike, the source gives them in different places.", "data": [{"smiles": "C/C=C(/C)C(=O)O[C@H]1C(C)=C2[C@H]([C@@H]1OC(=O)CCCCCCC)[C@@](C)(OC(C)=O)C[C@H](OC(=O)CCC)[C@@]1(O)[C@H]2OC(=O)[C@@]1(C)O", "note": "[thapsigargin]", "values": [{"measurement": "effect on 223Ra transport through monolayers", "setting": "[1]", "value": "does not increase transport"}]}, {"smiles": "[Cl][223Ra][Cl]", "note": "[^223RaCl2, Radium-223 Dichloride]", "values": [{"measurement": "median survival", "setting": "[2]", "value": 14.9, "unit": "months"}, {"measurement": "apoptosis and DNA damage in cells of the colon and duodenum", "setting": "colon and duodenum", "value": "increased cell apoptosis and DNA damage"}, {"measurement": "bone uptake", "setting": "24 h p.i., macropa study", "value": "22±1", "unit": "% IA/g"}, {"measurement": "splenic uptake", "setting": "24 h p.i., macropa-β-alanine study", "value": "5.52+/−2.3 % IA/g"}, {"measurement": "bone uptake", "setting": "24 h p.i., macropa-β-alanine study, naive skeletally mature mice", "value": "9.7±1.66", "unit": "% IA/g"}, {"measurement": "small bowel and stomach accumulation", "setting": "[3]", "value": "observed within minutes"}, {"measurement": "223Ra transport, differentiated versus undifferentiated enteroids", "setting": "[4]; basolateral to lumen compartment, P<0.05", "value": "superior capacity to transport"}, {"measurement": "transport of radioactivity, 37° C. versus 4° C.", "setting": "[4]; undifferentiated enteroids, basolateral to apical", "value": "temperature-dependent active transport"}, {"measurement": "activity in early protein fractions (5-15 mL), affinity with proteins", "setting": "human serum proteins", "value": "no registered activity in the early fractions"}]}, {"smiles": "O=C([O-])c1cccc(CN2CCOCCOCCN(Cc3cccc(C(=O)[O-])n3)CCOCCOCC2)n1.[Ba+2]", "note": "[[(Ba)macropa]]", "values": [{"measurement": "stability constant (log K′ML,pH7.4)", "setting": "[5]", "value": 10.74}]}, {"smiles": "O=C([O-])c1cccc(CN2CCOCCOCCN(Cc3cccc(C(=O)[O-])n3)CCOCCOCC2)n1.[223Ra+2]", "note": "[[(^223Ra)macropa]]", "values": [{"measurement": "fold lower bone uptake than free 223Ra", "setting": "15 min and 24 h p.i., FIG. 4C legend", "value": "10-25 fold"}, {"measurement": "fold lower bone uptake compared to 223RaCl2 in citrate", "setting": "15 min p.i.", "value": 10, "unit": "fold"}, {"measurement": "fold lower bone uptake compared to 223RaCl2 in citrate", "setting": "24 h p.i.", "value": 20, "unit": "fold"}, {"measurement": "bone uptake", "setting": "24 h p.i., macropa study", "value": "1.6±0.2", "unit": "% IA/g"}, {"measurement": "excretion route", "setting": "animal models, compared to bare ion (Xofigo)", "value": "quantitatively excreted via renal filtration"}, {"measurement": "accumulation in the spleen and the gut", "setting": "compared with 223RaCl2", "value": "prevented accumulation"}, {"measurement": "fold higher signal in equal volume of urine (bladder) than 223RaCl2 group", "setting": "early time point (15 min)", "value": 300, "unit": "fold"}, {"measurement": "complex status in urine after excretion (SEC)", "setting": "urine samples of chelator-administered group", "value": "intact"}, {"measurement": "activity in early protein fractions (5-15 mL), affinity with proteins", "setting": "human serum proteins", "value": "no registered activity in the early fractions"}, {"measurement": "223Ra retained (chelated activity) after serum protein challenge", "setting": "human serum proteins; [8]", "value": "> 90", "unit": "%"}, {"measurement": "decomplexation after serum protein challenge", "setting": "human serum proteins; [8]", "value": 10, "unit": "%"}]}, {"smiles": "O=c1[nH]c2cc(C(F)(F)F)ccc2n1-c1cc(C(F)(F)F)ccc1O", "note": "[NS-1619]", "values": [{"measurement": "effect on 223Ra transport through monolayers", "setting": "[1]", "value": "activator"}, {"measurement": "upper GI radioactive uptake (combined % IA of stomach, duodenum, jejunum)", "setting": "[6]; 1 h p.i.", "value": "significantly higher"}, {"measurement": "upper GI radioactive uptake (combined % IA of stomach, duodenum, jejunum)", "setting": "[6]; 4 h p.i.", "value": "No difference"}]}, {"smiles": "N=C(N)NC(=O)c1nc(Cl)c(N)nc1N", "note": "[Amiloride]", "values": [{"measurement": "effect on 223Ra transport through monolayers", "setting": "[1]", "value": "inhibitor"}, {"measurement": "increase in 223Ra bone-homing (whole legs gamma-counted) versus Radium-223 alone", "setting": "[7]; combination treatment, 20 days following treatment, P=0.0283", "value": 15, "unit": "%"}, {"measurement": "blood chemistry profile, Radium versus Radium/Amiloride cohorts", "setting": "[7]; day 1 to day 19 post-treatment", "value": "no profile difference"}, {"measurement": "upper GI radioactive uptake (combined % IA of stomach, duodenum, jejunum)", "setting": "[6]; 15 min p.i.", "value": "lower radioactive content"}, {"measurement": "upper GI radioactive uptake (combined % IA of stomach, duodenum, jejunum)", "setting": "[6]; 4 h p.i.", "value": "No difference"}, {"measurement": "223Ra sequestration in bone, times higher versus control or NS-1619", "setting": "[6]; 4 h p.i., modulator i.p. 1 h before 223RaCl2", "value": "over 1.5 times"}, {"measurement": "area under the curve of bone uptake versus 223RaCl2 alone", "setting": "[6]; combination with 223RaCl2, FIG. 17", "value": "significantly larger"}]}]}
